Patent US7122353B2, “Targeted carrier fusions for delivery of chemotherapeutic agents” (Wisconsin Alumni Research Foundation, priority 2003, dated 2006)
Structures can show the parent of a compound that is named as a salt. Numbered stars: 1 amine (or outer) side, 2 acyl side, 3 side chain; on linkers, the order of the positions; unused ones are H or OH. Bridge positions count the residues as written; N and C are the ends. Square brackets hold non-standard residues; d marks the D form. Peptide text beside a SMILES is read from it. I, II: the chains in the order shown. Actinocin(9to1) = Cc1c2oc3c(C)ccc(C(=O)[*:1])c3nc-2c(C(=O)[*:2])c(N)c1=O; NMeV = CN[C@H](C(=O)O)C(C)C; Sar = CNCC(=O)O

Legend:
prostates cancers = conditions: mouse, in vivo; cited from earlier work
[1] = cited from earlier work
[2] = test system: cancer cell lines (WM115, KS1617); assay: Fluorescence imaging of binding of IC3-OSu-labeled carrier proteins to cancer cells; format: cell-based; conditions: 100 μl of 0.1 mg/ml labeled protein, about 10 min, room temperature, washed 3 times with PBS
Protocol: WM115 (high-level expression of αvβ3 integrin) and MCF7 (low level expression of αvβ3 integrin, about 10% of WM115) cell lines were grown in α MEM medium enriched with 10% fetal bovine serum (FBS) and 60 μg/ml of penicillin and 100 μg/ml of streptomycin. KS1617 cell line (high-level expression of CD13) was grown in RPMI1640 medium also enriched with 10% FBS and 60 μg/ml of penicillin and 100 μg/ml of streptomycin. The cell cultures were passed to fresh medium every 2–3 days. For fluorescent imaging, the cells were grown in 4-well culture slides to about 70% confluence before use.
To facilitate detection, the recombinant CTP-containing carrier proteins were labeled with Dojindo IC3-Osu, which reacts with lysine residues of the protein, according to the recommended protocols by the manufacturer (Dojindo, Gaithersburg, Md.) (FIG. 5). About 0.5 mg/ml protein was reacted with 3-fold excess of the fluorescent dye in dark at room temperature for 1 hr, and the extra dye was removed using Bio-Rad Econo-Pac desalting column. The labeling efficiency was measured using UV-vis spectroscopy. On average, about 25–35% of protein molecules were labeled.
The binding specificity between CTP-containing carrier proteins and various cancer cell lines was evaluated with both the native carrier proteins and normal cell lines as negative controls. […]

Molecule: SMSIARL [cancer-targeting peptide for prostate cancer]
- targeting to prostates cancers relative to other organs (prostates cancers): 10–15 times

Molecule: CC[C@]1(O)C[C@@H]2CN(CCc3c([nH]c4ccccc34)[C@@](C(=O)OC)(c3cc4c(cc3OC)N(C)[C@H]3[C@@](O)(C(=O)OC)[C@H](OC(C)=O)[C@]5(CC)C=CCN6CC[C@]43[C@@H]65)C2)C1 [Vinblastine]
- plasma half-life after distribution (first value) ([1]; after intravenous injection): approximately 1 hours
- plasma half-life after distribution (second value) ([1]; after intravenous injection): ~20 h

Molecule: Cc1c2oc3c(C)ccc(C(=O)N[C@@H]4C(=O)N[C@H](C(C)C)C(=O)N5CCC[C@H]5C(=O)N(C)CC(=O)N(C)[C@@H](C(C)C)C(=O)O[C@@H]4C)c3nc-2c(C(=O)N[C@@H]2C(=O)N[C@H](C(C)C)C(=O)N3CCC[C@H]3C(=O)N(C)CC(=O)N(C)[C@@H](C(C)C)C(=O)O[C@@H]2C)c(N)c1=O [Actinomycin D] (I: T[dV]P[Sar][NMeV] / II: T[dV]P[Sar][NMeV]; ester I:1-I:C, II:1-II:C; linker I:N-II:N via Actinocin(9to1))
- part of the dose excreted intact into the bile ([1]; in vivo): Half of the dose

Molecule: COc1cccc2c1C(=O)c1c(O)c3c(c(O)c1C2=O)C[C@@](O)(C(C)=O)C[C@@H]3O[C@H]1C[C@H](N)[C@H](O)[C@H](C)O1 [Daunorubicin, 5,12-Naphthacenedione, (8S-cis)-8-acetyl-10-((3-amino-2,3,6-trideoxy-a-L-lyxo-hexanopyranosyl)oxy)-7,8,9,10-tetrahydro-6,8,11-trihydroxy-10-methoxy-, hydrochloride]
- secreted into the bile ([1]; in vivo): about 40%

B1: native NcsA: His-tagged native neocarzinostatin apo-protein encoded by the ncsA gene of Streptomyces carzinostaticus; negative control (protein)
chain: AAPTATVTPSSGLSDGTVVKVAGAGLQAGTAYDVGQCAWVDTGVLACNPADFSSVTADANGSASTSLTVRRSFEGFLFDGTRWGTVDCTTAACQVGLSDAAGNGPEGVAISFN
modifications: left off: small tags and cut ends
notes: His-tagged native neocarzinostatin apo-protein encoded by the ncsA gene of Streptomyces carzinostaticus; negative control
- fluorescence detected on cells after incubation with labeled protein [2]: no significant fluorescence

B2: native CagA: His-tagged native C-1027 apo-protein encoded by the cagA gene of Streptomyces globisporus; negative control (protein)
chain: APAFSVSPASGLSDGQSVSVSVSGAAAGETYYIAQCAPVGGQDACNPATATSFTTDASGAASFSFVVRKSYTGSTPEGTPVGSVDCATAACNLGAGNSGLDLGHVALTFG
modifications: left off: small tags and cut ends
notes: His-tagged native C-1027 apo-protein encoded by the cagA gene of Streptomyces globisporus; negative control
- fluorescence detected on cells after incubation with labeled protein [2]: no significant fluorescence
